From patent US10954269B2, “Anti-inflammatory tripeptides” (Dr. August Wolff Gmbh & Co. KG Arzneimittel, priority 2013, dated 2021)

Key:
primary human T-cells = assay: Cytokine secretion on protein level in activated primary human T-cells (13-plex FACS / Luminex, supernatant); assay type: cell-based; conditions: 10^−9M
In short: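 First, T-cells are isolated from healthy donors' blood. Next, they and HaCaT keratinocytes are activated for 48 h with PMA/Ionomycin or IFN-γ in the presence of tripeptides. Finally, secreted cytokines are quantified in supernatants by 13-plex FACS at 48 and 72 h.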

primary murine T-cells = assay: Cytokine secretion on protein level in activated primary murine T-cells (13-plex FACS / Luminex, supernatant); assay type: cell-based, C57BL/6 mice; conditions: 10^−9M
In short: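 T-cells from secondary lymphatic organs of naïve C57BL/6 mice, stimulated with PMA/Ionomycin or IFN-γ; supernatant cytokines measured by 13-plex FACS 48 h and 72 h after stimulation. In another run, PMA/Ionomycin-stimulated cells received compounds at 10^−7, 10^−9 and 10^−11 M, with IFN-γ, IL-17 and IL-10 measured by Luminex.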

[1] = tested on: human keratinocyte cell line (HaCaT); assay: Cytokine secretion on protein level in activated human keratinocyte cell line HaCaT (13-plex FACS / Luminex, supernatant); assay type: cell-based; conditions: for IL-1 cytokine concentration / IL-2 cytokine concentration / IL-4 cytokine concentration / IL-5 cytokine concentration / IL-6 cytokine concentration / IL-9 cytokine concentration / IL-10 cytokine concentration / IL-13 cytokine concentration / IL-17 cytokine concentration / TNF-α cytokine concentration / IL-12p70 cytokine concentration / IL-22 cytokine concentration / IFN-γ cytokine concentration: 10^−9M; for IL-12p70 cytokine concentration / IL-22 cytokine concentration: excluded from the final assessment
In short: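 Stimulus: PMA/Ionomycin or IFN-γ, 48 h; cells: HaCaT or human peripheral-blood T-cells; tripeptide treatment; readout: supernatant cytokines via 13-plex FACS or Luminex, 48–72 h post-stimulation.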

[2] = primary human T-cells stimulated with IFN-γ
[3] = primary human T-cells stimulated with PBS
[4] = primary human T-cells stimulated with PMA/Ionomycin
[5] = primary murine T-cells stimulated with IFN-γ
[6] = primary murine T-cells stimulated with PBS
[7] = primary murine T-cells stimulated with PMA/Ionomycin
[8] = primary murine T-cells stimulated with PMA/Ionomycin, 1:10 dilution of the supernatants
[9] = HaCaT stimulated with PMA/Ionomycin

**Q.** What does the source list for “H-(L)-Lys-(D)-Pro-N^α-methyl-(L)-Thr-OH [Example 2]”?
**A.** IL-1 cytokine concentration (primary human T-cells; [2]): 314.88 pg/mL; IL-2 cytokine concentration (primary human T-cells; [2]): 740.3 pg/mL; IL-4 cytokine concentration (primary human T-cells; [2]): 116.26 pg/mL; IL-5 cytokine concentration (primary human T-cells; [2]): 177.72 pg/mL; IL-6 cytokine concentration (primary human T-cells; [2]): 97.68 pg/mL; IL-9 cytokine concentration (primary human T-cells; [2]): 106.37 pg/mL; IL-10 cytokine concentration (primary human T-cells; [2]): 146.79 pg/mL; IL-12p70 cytokine concentration (primary human T-cells; [2]): 804.93 pg/mL; IL-13 cytokine concentration (primary human T-cells; [2]): 97.39 pg/mL; IL-17 cytokine concentration (primary human T-cells; [2]): 168.9 pg/mL; IL-22 cytokine concentration (primary human T-cells; [2]): 21970.6 pg/mL; TNF-α cytokine concentration (primary human T-cells; [2]): 188.29 pg/mL; IFN-γ cytokine concentration (primary human T-cells; [3]): 0 pg/mL; IL-1 cytokine concentration (primary human T-cells; [3]): 305.62 pg/mL; IL-2 cytokine concentration (primary human T-cells; [3]): 985.16 pg/mL; IL-4 cytokine concentration (primary human T-cells; [3]): 151.33 pg/mL; IL-5 cytokine concentration (primary human T-cells; [3]): 310.87 pg/mL; IL-6 cytokine concentration (primary human T-cells; [3]): 84.38 pg/mL; IL-9 cytokine concentration (primary human T-cells; [3]): 116.55 pg/mL; IL-10 cytokine concentration (primary human T-cells; [3]): 253.29 pg/mL; IL-12p70 cytokine concentration (primary human T-cells; [3]): 226.23 pg/mL; IL-13 cytokine concentration (primary human T-cells; [3]): 90.3 pg/mL; IL-17 cytokine concentration (primary human T-cells; [3]): 238.4 pg/mL; IL-22 cytokine concentration (primary human T-cells; [3]): 2242.06 pg/mL; TNF-α cytokine concentration (primary human T-cells; [3]): 211.85 pg/mL; IFN-γ cytokine concentration (primary human T-cells; [4]): 2726.77 pg/mL; IL-1 cytokine concentration (primary human T-cells; [4]): 69689.2 pg/mL; IL-2 cytokine concentration (primary human T-cells; [4]): 12000 pg/mL; IL-4 cytokine concentration (primary human T-cells; [4]): 239.02 pg/mL; IL-5 cytokine concentration (primary human T-cells; [4]): 325.76 pg/mL; IL-6 cytokine concentration (primary human T-cells; [4]): 1533.99 pg/mL; IL-9 cytokine concentration (primary human T-cells; [4]): 142.93 pg/mL; IL-10 cytokine concentration (primary human T-cells; [4]): 3938.15 pg/mL; IL-12p70 cytokine concentration (primary human T-cells; [4]): 1413.17 pg/mL; IL-13 cytokine concentration (primary human T-cells; [4]): 760.63 pg/mL; IL-17 cytokine concentration (primary human T-cells; [4]): 3476.92 pg/mL; IL-22 cytokine concentration (primary human T-cells; [4]): 24128.2 pg/mL; TNF-α cytokine concentration (primary human T-cells; [4]): 3600 pg/mL; IL-1 cytokine concentration (primary murine T-cells; [5]): 22.78 pg/mL; IL-2 cytokine concentration (primary murine T-cells; [5]): 0 pg/mL; IL-4 cytokine concentration (primary murine T-cells; [5]): 0 pg/mL; IL-5 cytokine concentration (primary murine T-cells; [5]): 72.11 pg/mL; IL-6 cytokine concentration (primary murine T-cells; [5]): 23.14 pg/mL; IL-10 cytokine concentration (primary murine T-cells; [5]): 72.95 pg/mL; IL-13 cytokine concentration (primary murine T-cells; [5]): 0 pg/mL; IL-17 cytokine concentration (primary murine T-cells; [5]): 0 pg/mL; IL-21 cytokine concentration (primary murine T-cells; [5]): 0 pg/mL; IL-22 cytokine concentration (primary murine T-cells; [5]): 8.52 pg/mL; IL-27 cytokine concentration (primary murine T-cells; [5]): 1234.48 pg/mL; TNF-α cytokine concentration (primary murine T-cells; [5]): 0 pg/mL; IFN-γ cytokine concentration (primary murine T-cells; [6]): 2375.02 pg/mL; IL-1 cytokine concentration (primary murine T-cells; [6]): 36.6 pg/mL; IL-2 cytokine concentration (primary murine T-cells; [6]): 138.15 pg/mL; IL-4 cytokine concentration (primary murine T-cells; [6]): 0 pg/mL; IL-5 cytokine concentration (primary murine T-cells; [6]): 45.71 pg/mL; IL-6 cytokine concentration (primary murine T-cells; [6]): 0 pg/mL; IL-10 cytokine concentration (primary murine T-cells; [6]): 0 pg/mL; IL-13 cytokine concentration (primary murine T-cells; [6]): 0 pg/mL; IL-17 cytokine concentration (primary murine T-cells; [6]): 0 pg/mL; IL-21 cytokine concentration (primary murine T-cells; [6]): 0 pg/mL; IL-22 cytokine concentration (primary murine T-cells; [6]): 0 pg/mL; IL-27 cytokine concentration (primary murine T-cells; [6]): 0 pg/mL; TNF-α cytokine concentration (primary murine T-cells; [6]): 0 pg/mL; IL-1 cytokine concentration (primary murine T-cells; [7]): 0 pg/mL; IL-4 cytokine concentration (primary murine T-cells; [7]): 129.47 pg/mL; IL-5 cytokine concentration (primary murine T-cells; [7]): 350.49 pg/mL; IL-6 cytokine concentration (primary murine T-cells; [7]): 338.28 pg/mL; IL-10 cytokine concentration (primary murine T-cells; [7]): 155.42 pg/mL; IL-13 cytokine concentration (primary murine T-cells; [7]): 4703.82 pg/mL; IL-17 cytokine concentration (primary murine T-cells; [7]): 649.14 pg/mL; IL-21 cytokine concentration (primary murine T-cells; [7]): 0 pg/mL; IL-22 cytokine concentration (primary murine T-cells; [7]): 670.15 pg/mL; IL-27 cytokine concentration (primary murine T-cells; [7]): 778.4 pg/mL; TNF-α cytokine concentration (primary murine T-cells; [7]): 628.15 pg/mL; IFN-γ* cytokine concentration (primary murine T-cells; [8]): 0 pg/mL; IL-2* cytokine concentration (primary murine T-cells; [8]): 744.58 pg/mL; IL-1 cytokine concentration ([1]; HaCaT stimulated with IFN-γ): 265.46 pg/mL; IL-2 cytokine concentration ([1]; HaCaT stimulated with IFN-γ): 96.34 pg/mL; IL-4 cytokine concentration ([1]; HaCaT stimulated with IFN-γ): 71.76 pg/mL; IL-5 cytokine concentration ([1]; HaCaT stimulated with IFN-γ): 109.73 pg/mL; IL-6 cytokine concentration ([1]; HaCaT stimulated with IFN-γ): 641.89 pg/mL; IL-9 cytokine concentration ([1]; HaCaT stimulated with IFN-γ): 104.08 pg/mL; IL-10 cytokine concentration ([1]; HaCaT stimulated with IFN-γ): 129.2 pg/mL; IL-13 cytokine concentration ([1]; HaCaT stimulated with IFN-γ): 61.18 pg/mL; IL-17 cytokine concentration ([1]; HaCaT stimulated with IFN-γ): 629.16 pg/mL; TNF-α cytokine concentration ([1]; HaCaT stimulated with IFN-γ): 79.97 pg/mL; IL-12p70 cytokine concentration ([1]; HaCaT stimulated with IFN-γ): 1904.09 pg/mL; IL-22 cytokine concentration ([1]; HaCaT stimulated with IFN-γ): 0 pg/mL; IFN-γ cytokine concentration ([1]; HaCaT stimulated with PBS): 397.45 pg/mL; IL-1 cytokine concentration ([1]; HaCaT stimulated with PBS): 251.25 pg/mL; IL-2 cytokine concentration ([1]; HaCaT stimulated with PBS): 177.85 pg/mL; IL-4 cytokine concentration ([1]; HaCaT stimulated with PBS): 90.8 pg/mL; IL-5 cytokine concentration ([1]; HaCaT stimulated with PBS): 189.12 pg/mL; IL-6 cytokine concentration ([1]; HaCaT stimulated with PBS): 75.53 pg/mL; IL-9 cytokine concentration ([1]; HaCaT stimulated with PBS): 139.65 pg/mL; IL-10 cytokine concentration ([1]; HaCaT stimulated with PBS): 151.26 pg/mL; IL-13 cytokine concentration ([1]; HaCaT stimulated with PBS): 69.36 pg/mL; IL-17 cytokine concentration ([1]; HaCaT stimulated with PBS): 569.9 pg/mL; TNF-α cytokine concentration ([1]; HaCaT stimulated with PBS): 84.84 pg/mL; IL-12p70 cytokine concentration ([1]; HaCaT stimulated with PBS): 1864.02 pg/mL; IL-22 cytokine concentration ([1]; HaCaT stimulated with PBS): 14446.9 pg/mL; IFN-γ cytokine concentration [1, 9]: 704.33 pg/mL; IL-1 cytokine concentration [1, 9]: 204.23 pg/mL; IL-2 cytokine concentration [1, 9]: 130.08 pg/mL; IL-4 cytokine concentration [1, 9]: 58.48 pg/mL; IL-5 cytokine concentration [1, 9]: 129.65 pg/mL; IL-6 cytokine concentration [1, 9]: 129.99 pg/mL; IL-9 cytokine concentration [1, 9]: 104.14 pg/mL; IL-10 cytokine concentration [1, 9]: 97.55 pg/mL; IL-13 cytokine concentration [1, 9]: 69.36 pg/mL; IL-17 cytokine concentration [1, 9]: 369.01 pg/mL; TNF-α cytokine concentration [1, 9]: 62.15 pg/mL; IL-12p70 cytokine concentration [1, 9]: 0 pg/mL; IL-22 cytokine concentration [1, 9]: 14806.4 pg/mL; secretion / expression of pro-inflammatory cytokines (supernatant) ([1]; activated human keratinocytes): decreased secretion
